Our source for the inhibition, Activity and IC50 values is ChEMBL document CHEMBL4007416, “Thieno[3,2-b]pyrrole-5-carboxamides as New Reversible Inhibitors of Histone Lysine Demethylase KDM1A/LSD1. Part 2: Structure-Based Drug Design and Structure-Activity Relationship” (J Med Chem, 2017).

The subject of experiment [1] is THP-1. Briefly: Anticlonogenic activity against human THP1 cells assessed as inhibition of methylcellulose colony formation at 0.5 uM after 13 days relative to control. The note with it: THP-1, 312 h. It counts as functional.
The subject of experiment [2] is THP-1. Briefly: Induction of apoptosis in human THP1 cells at 0.5 uM after 72 hrs by Annexin V-propidium iodide double staining based flow cytometry. It counts as functional, cell-based. A general note: A flow cytometer gives signals particle by particle.
The subject of experiment [3] is THP-1. Briefly: Cell cycle arrest in human THP1 cells at 0.5 uM after 72 hrs by propidium iodide staining based flow cytometry. It counts as functional.
Experiment [4] has as its target T1, Lysine-specific histone demethylase 2 (Homo sapiens, UniProt Q8NB78).
T1 sequence (Q8NB78 whole entry): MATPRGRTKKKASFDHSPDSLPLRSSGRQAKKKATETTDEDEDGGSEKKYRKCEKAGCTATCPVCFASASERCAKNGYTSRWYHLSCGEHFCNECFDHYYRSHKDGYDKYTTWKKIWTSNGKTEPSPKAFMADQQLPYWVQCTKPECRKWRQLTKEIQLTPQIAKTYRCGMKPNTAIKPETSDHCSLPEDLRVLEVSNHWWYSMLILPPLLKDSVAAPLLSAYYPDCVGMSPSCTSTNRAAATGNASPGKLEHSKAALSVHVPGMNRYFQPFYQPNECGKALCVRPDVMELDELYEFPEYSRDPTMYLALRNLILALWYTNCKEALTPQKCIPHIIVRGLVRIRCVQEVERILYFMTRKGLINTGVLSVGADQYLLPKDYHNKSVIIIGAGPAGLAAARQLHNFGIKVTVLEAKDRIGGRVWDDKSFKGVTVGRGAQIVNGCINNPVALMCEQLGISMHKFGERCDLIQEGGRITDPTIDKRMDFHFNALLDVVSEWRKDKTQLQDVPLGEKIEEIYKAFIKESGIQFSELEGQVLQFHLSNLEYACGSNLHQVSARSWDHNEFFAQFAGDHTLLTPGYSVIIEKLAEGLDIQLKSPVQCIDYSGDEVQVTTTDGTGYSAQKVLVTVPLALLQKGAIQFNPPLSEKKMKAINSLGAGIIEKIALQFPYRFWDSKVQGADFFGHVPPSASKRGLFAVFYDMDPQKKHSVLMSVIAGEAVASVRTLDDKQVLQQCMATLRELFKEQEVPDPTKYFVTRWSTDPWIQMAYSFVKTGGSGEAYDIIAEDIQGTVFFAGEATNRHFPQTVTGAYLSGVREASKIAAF
Briefly: Inhibition of KDM1B (unknown origin).

Experiment [5] has as its target T2, Amine oxidase [flavin-containing] A (Homo sapiens, UniProt P21397).
T2 sequence (P21397 whole entry): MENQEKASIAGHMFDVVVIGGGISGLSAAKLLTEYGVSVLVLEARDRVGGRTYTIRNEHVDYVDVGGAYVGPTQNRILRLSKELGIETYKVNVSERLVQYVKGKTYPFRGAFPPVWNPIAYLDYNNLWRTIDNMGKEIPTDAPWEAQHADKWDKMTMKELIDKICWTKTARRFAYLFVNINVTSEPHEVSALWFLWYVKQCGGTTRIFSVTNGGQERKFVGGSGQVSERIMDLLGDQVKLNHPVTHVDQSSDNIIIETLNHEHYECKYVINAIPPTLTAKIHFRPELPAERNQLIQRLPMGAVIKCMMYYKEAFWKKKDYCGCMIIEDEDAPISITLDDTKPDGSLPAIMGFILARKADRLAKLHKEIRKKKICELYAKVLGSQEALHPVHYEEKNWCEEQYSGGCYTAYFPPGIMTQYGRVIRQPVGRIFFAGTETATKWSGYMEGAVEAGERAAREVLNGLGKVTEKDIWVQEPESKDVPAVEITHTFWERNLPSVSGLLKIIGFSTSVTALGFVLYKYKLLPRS
Briefly: Inhibition of recombinant human MAOA incubated for 15 mins measured after 30 mins by luminescence-Glo assay.

Active and inactive are the calls of the source. The rule behind the calls is not given here.

One may read the inhibition as the share of the control response that was lost under treatment. In general, IC50 refers to the concentration needed to halve the response being measured. As to `N[C@H]1CC[C@H](N[C@@H]2C[C@H]2c2ccccc2)CC1`, the inhibition at 0.5 µM in the experiment on THP-1 [1] came to 70%. Moreover, the outcome with THP-1 [2] and in the experiment with THP-1 [3] was inactive. Also, the IC50 in experiment [4] amounted to 12.9 µM; in experiment [5], 41.3 µM.
